Measured values as given in paper PMC6804006, “Synthesis, Biological Activities and Docking Studies of Novel 4-(Arylaminomethyl)benzamide Derivatives as Potential Tyrosine Kinase Inhibitors” (Molecules, 2019).

Assays:
PDGFRb = target: T1, PDGFRb (Homo sapiens, UniProt P09619); experiment: ADP-Glo kinase inhibitory assay, PDGFRb; assay type: biochemical; conditions: for inhibition at 0.01 µM: read-out: % Inhibition at 10 nM, PDGFRb
T1 construct: purchased Promega
Procedure: (§1) We investigated the kinase selectivity of targeted compounds against eight receptor tyrosine kinases including EGFR (epidermal growth factor receptor), HER-2 and HER4 (human epidermal growth factor receptor), IGF1R (insulin like growth factor 1 receptor), InsR (gene insulin receptor), KDR (kinase insert domain receptor), and PDGFRa and PDGFRb (platelet-derived growth factor receptors). The assay was performed using the Kinase-Glo Plus luminescence kinase assay kit (TK-1+ADP-Glo™, Promega, San Diego, CA, USA). It measures kinase activity by quantitating the amount of ATP remaining in solution following a kinase reaction.
(§2) The assay was performed using a Kinase Selectivity Profiling System (TK-1+ADP-Glo™ Assay and TK-2+ADP-Glo™ Assay, Promega), where the kinase activity was measured by quantifying the amount of ADP produced during a kinase reaction. The assay is performed in two steps; firstly, after the kinase reaction, an equal volume of ADP-Glo™ Reagent is added to terminate the kinase reaction and deplete the remaining ATP. Secondly, the Kinase Detection Reagent is added to simultaneously convert ADP to ATP and allow the newly synthesized ATP to be measured using a luciferase/luciferin reaction. The luminescent signal generated is proportional to the ADP concentration produced and is correlated with kinase activity. Our compounds were diluted with kinase buffer (5% DMSO), and 1 μL of the dilution was added to a 5-μL reaction so that the final concentration of DMSO was 1% in all of reactions. All of the enzymatic reactions were conducted at 23 °C for 60 min. The 5-μL reaction mixture contained 1µL of the compound solution, 2µL of the enzyme solution, and 2 µL of kinase substrate. After the enzymatic reaction, 5 µL of ADP-Glo™ Reagent (Promega, USA) was added to each reaction, and the plate was incubated for 40 min at 23 °C. Then, 10 µL of Kinase Detection Reagent (Promega, USA) was added to each reaction, and the plate was incubated for 30 min at 23 °C. Luminescence signal was measured using an Infinite M 200 plate reader (Tecan, Switzerland).
(§3) Kinase activity assays were performed in duplicate at each concentration. The luminescence data were analyzed using the computer software, Magellan™. The difference between luminescence intensities in the absence of Kinase (Lut) and in the presence of Kinase (Luc) was defined as 100% activity (Lut − Luc).

HER-4 = target: T2, HER-4 (Homo sapiens, UniProt Q15303); experiment: ADP-Glo kinase inhibitory assay, HER-4; assay type: biochemical; conditions: for inhibition at 0.01 µM: read-out: % Inhibition at 10 nM, HER-4; for inhibitory activity in relation to HER-4, in words: compared with imatinib
T2 construct: purchased Promega
Procedure: as §1, §2, §3

[1] = system: RPMI 1788 (B lymphocyte, human normal cells); experiment: MTT assay on normal cells RPMI 1788; assay type: cell-based; conditions: MTT 48 h
Procedure: (§4) Each in vitro experiment was performed at least in triplicate, and the standard deviation of absorbance was less than 10% of the mean. For the in vitro assays, a stock solution (1% DMSO in the appropriate buffer with the tested compound diluted under sonication) was prepared from which several dilutions were made with the appropriate buffer.
(§5) Human cell lines were obtained from the Institute of Cytology, Russian Academy of Sciences. The cell lines studied were maintained in RPMI 1640 medium (AppliChem, Darmstadt, Germany) supplemented with 20% (HL-60, RPMI 1788) fetal calf serum (HyClone, Cramlington, UK), in DMEM (A 549) and Eagle’s MEM (AppliChem) (MCF7, HeLa) with 10% fetal calf serum (HyClone). Cells were cultivated at 37 °C in a humidified atmosphere of 5% CO2. Cellular sensitivities to clofarabine and its lipid derivatives were measured with the MTT assay. Cells were plated in triplicate in 96-well plates (10^5 cells/well for suspended cell cultures and 5 × 10^3 cells/well for monolayer cultures); on the same day (suspended cell cultures) or on the following day (monolayer cultures), compounds were added at the appropriate dilutions. Plates were incubated under standard conditions for 48 h. Thereafter, 10 μL of MTT (Sigma) in phosphate-buffered saline (5 mg/mL) was added. The plates were incubated for an additional 4 h, and 150 μL of dimethyl sulfoxide (DMSO) was added to dissolve the formazan crystals. The optical density was read on a HALO MPR-95 Microplate Reader (Dynamica Scientific Ltd., Australia) at 570 nm. The antiproliferative effects were determined as degrees of inhibition of tumor cells (%).

HER-2 = target: T3, HER-2 (Homo sapiens, UniProt P04626); experiment: ADP-Glo kinase inhibitory assay, HER-2; assay type: biochemical; conditions: for inhibition at 0.01 µM: read-out: % Inhibition at 10 nM, HER-2
T3 construct: purchased Promega
Procedure: as §1, §2, §3

KDR (VEGFR2) = target: T4, KDR (VEGFR2) (Homo sapiens, UniProt P35968); experiment: ADP-Glo kinase inhibitory assay, KDR; assay type: biochemical; conditions: for inhibition at 0.01 µM: 10 nM
T4 construct: purchased Promega
Procedure: as §1
Vascular endothelial growth factor receptor 2 (VEGFR2), also called kinase insert domain receptor (KDR), is a tyrosine kinase receptor for VEGFs that plays a central role in tumor angiogenesis; therefore, the inhibition of VEGFR2 is a promising therapeutic strategy for inhibiting angiogenesis and tumor growth.
as §2, §3

InsR = target: T5, InsR (Homo sapiens, UniProt P06213); experiment: ADP-Glo kinase inhibitory assay, InsR; assay type: biochemical; conditions: for inhibition at 0.01 µM: read-out: % Inhibition at 10 nM, InsR
T5 construct: purchased Promega
Procedure: as §1, §2, §3

PDGFRa = target: T6, PDGFRa (Homo sapiens, UniProt P16234); experiment: ADP-Glo kinase inhibitory assay, PDGFRa; assay type: biochemical; conditions: for inhibition at 0.01 µM: read-out: % Inhibition at 10 nM, PDGFRa
T6 construct: purchased Promega
Procedure: as §1, §2, §3

EGFR = target: T7, EGFR (Homo sapiens, UniProt P00533); experiment: ADP-Glo kinase inhibitory assay, EGFR; assay type: biochemical; conditions: for inhibition at 0.01 µM: read-out: % Inhibition at 10 nM, EGFR
T7 construct: purchased Promega
Procedure: as §1, §2, §3

IGF1R = target: T8, IGF1R (Homo sapiens, UniProt P08069); experiment: ADP-Glo kinase inhibitory assay, IGF1R; assay type: biochemical; conditions: for inhibition at 0.01 µM: read-out: % Inhibition at 10 nM, IGF1R
T8 construct: purchased Promega
Procedure: as §1, §2, §3

[2] = system: K-562 (chronic myelogenous leukemia); experiment: MTT anti-proliferative assay, K-562; assay type: cell-based; conditions: Homo sapiens, K562, 48 h, 50% growth inhibition
Procedure: as §4
as §5, with “The cell lines studied were maintained in RPMI 1640 medium (AppliChem, Darmstadt, Germany) supplemented with 20% (HL-60, RPMI 1788) fetal calf serum (HyClone, Cramlington, UK), in DMEM (A 549) and Eagle’s MEM (AppliChem) (MCF7, HeLa) with 10% fetal calf serum (HyClone). Cells were cultivated at 37 °C in a humidified atmosphere of 5% CO2.” left out

[3] = system: HL-60 (promyelocytic leukemia); experiment: MTT anti-proliferative assay, HL-60; assay type: cell-based, human; conditions: Homo sapiens, HL-60, 48 h, 50% growth inhibition
Procedure: as §4
as §5, with “The cell lines studied were maintained in RPMI 1640 medium (AppliChem, Darmstadt, Germany) supplemented with 20% (HL-60, RPMI 1788) fetal calf serum (HyClone, Cramlington, UK), in DMEM (A 549) and Eagle’s MEM (AppliChem) (MCF7, HeLa) with 10% fetal calf serum (HyClone). Cells were cultivated at 37 °C in a humidified atmosphere of 5% CO2.” left out

T8 sequence (P08069 31-1367): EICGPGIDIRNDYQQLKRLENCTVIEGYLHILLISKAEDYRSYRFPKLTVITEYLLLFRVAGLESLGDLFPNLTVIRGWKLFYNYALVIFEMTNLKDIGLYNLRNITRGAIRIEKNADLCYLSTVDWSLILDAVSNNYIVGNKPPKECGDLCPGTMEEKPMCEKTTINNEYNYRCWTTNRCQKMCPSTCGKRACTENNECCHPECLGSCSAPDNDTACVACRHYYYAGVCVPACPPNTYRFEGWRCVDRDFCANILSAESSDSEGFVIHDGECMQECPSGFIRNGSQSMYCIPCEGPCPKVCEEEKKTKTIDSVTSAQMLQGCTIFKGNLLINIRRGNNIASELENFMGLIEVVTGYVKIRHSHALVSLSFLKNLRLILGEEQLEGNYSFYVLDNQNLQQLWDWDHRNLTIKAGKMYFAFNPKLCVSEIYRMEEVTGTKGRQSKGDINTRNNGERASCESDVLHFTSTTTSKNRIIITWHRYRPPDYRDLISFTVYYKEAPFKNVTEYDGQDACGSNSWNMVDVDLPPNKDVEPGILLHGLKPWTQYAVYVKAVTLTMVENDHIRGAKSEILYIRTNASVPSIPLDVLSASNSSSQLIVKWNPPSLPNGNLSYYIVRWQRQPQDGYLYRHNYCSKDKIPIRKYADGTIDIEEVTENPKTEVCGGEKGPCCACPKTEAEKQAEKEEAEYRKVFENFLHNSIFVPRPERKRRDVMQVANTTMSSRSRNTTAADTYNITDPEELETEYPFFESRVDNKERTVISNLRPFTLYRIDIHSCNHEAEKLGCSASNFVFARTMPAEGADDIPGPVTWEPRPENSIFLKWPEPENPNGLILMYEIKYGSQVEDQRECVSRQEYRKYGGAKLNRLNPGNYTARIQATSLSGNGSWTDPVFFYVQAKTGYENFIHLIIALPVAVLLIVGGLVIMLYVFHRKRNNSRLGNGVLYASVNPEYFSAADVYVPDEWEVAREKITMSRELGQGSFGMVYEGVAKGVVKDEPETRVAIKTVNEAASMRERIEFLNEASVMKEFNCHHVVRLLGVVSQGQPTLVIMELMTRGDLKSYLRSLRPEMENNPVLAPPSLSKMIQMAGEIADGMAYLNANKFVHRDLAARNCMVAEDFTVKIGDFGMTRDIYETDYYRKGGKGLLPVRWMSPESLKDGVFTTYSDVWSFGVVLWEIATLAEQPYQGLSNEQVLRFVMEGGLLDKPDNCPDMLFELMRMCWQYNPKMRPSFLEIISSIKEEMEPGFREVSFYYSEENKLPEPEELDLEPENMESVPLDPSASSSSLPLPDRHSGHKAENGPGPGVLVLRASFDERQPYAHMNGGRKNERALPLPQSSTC
T6 sequence (P16234 24-1089): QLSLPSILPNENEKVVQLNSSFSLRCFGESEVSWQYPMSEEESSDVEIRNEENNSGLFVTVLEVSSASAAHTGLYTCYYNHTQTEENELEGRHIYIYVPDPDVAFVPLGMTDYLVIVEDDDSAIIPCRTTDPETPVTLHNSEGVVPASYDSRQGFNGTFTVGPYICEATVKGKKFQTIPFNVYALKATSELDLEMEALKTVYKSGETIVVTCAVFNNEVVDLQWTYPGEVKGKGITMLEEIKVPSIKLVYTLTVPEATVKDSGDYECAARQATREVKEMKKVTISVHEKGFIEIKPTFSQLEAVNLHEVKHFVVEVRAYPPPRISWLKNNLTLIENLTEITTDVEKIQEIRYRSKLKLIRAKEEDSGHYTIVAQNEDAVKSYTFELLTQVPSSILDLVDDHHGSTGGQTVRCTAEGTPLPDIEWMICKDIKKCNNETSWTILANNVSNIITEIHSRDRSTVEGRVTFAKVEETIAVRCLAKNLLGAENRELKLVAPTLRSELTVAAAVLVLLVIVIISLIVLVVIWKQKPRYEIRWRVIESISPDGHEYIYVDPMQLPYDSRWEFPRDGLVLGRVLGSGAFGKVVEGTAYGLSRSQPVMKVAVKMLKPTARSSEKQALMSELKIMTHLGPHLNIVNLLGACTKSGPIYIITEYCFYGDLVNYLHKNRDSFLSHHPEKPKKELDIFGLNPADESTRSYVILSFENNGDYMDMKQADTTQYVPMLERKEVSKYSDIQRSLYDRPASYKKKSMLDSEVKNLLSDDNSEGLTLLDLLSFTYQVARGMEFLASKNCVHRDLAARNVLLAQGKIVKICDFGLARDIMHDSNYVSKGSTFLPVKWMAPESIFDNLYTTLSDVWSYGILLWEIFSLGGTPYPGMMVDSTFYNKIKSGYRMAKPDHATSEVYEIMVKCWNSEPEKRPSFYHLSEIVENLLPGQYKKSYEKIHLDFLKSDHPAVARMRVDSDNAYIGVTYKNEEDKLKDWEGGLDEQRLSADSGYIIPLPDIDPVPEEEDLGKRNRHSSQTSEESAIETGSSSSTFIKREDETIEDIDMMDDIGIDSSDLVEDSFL
T4 sequence (P35968 20-1356): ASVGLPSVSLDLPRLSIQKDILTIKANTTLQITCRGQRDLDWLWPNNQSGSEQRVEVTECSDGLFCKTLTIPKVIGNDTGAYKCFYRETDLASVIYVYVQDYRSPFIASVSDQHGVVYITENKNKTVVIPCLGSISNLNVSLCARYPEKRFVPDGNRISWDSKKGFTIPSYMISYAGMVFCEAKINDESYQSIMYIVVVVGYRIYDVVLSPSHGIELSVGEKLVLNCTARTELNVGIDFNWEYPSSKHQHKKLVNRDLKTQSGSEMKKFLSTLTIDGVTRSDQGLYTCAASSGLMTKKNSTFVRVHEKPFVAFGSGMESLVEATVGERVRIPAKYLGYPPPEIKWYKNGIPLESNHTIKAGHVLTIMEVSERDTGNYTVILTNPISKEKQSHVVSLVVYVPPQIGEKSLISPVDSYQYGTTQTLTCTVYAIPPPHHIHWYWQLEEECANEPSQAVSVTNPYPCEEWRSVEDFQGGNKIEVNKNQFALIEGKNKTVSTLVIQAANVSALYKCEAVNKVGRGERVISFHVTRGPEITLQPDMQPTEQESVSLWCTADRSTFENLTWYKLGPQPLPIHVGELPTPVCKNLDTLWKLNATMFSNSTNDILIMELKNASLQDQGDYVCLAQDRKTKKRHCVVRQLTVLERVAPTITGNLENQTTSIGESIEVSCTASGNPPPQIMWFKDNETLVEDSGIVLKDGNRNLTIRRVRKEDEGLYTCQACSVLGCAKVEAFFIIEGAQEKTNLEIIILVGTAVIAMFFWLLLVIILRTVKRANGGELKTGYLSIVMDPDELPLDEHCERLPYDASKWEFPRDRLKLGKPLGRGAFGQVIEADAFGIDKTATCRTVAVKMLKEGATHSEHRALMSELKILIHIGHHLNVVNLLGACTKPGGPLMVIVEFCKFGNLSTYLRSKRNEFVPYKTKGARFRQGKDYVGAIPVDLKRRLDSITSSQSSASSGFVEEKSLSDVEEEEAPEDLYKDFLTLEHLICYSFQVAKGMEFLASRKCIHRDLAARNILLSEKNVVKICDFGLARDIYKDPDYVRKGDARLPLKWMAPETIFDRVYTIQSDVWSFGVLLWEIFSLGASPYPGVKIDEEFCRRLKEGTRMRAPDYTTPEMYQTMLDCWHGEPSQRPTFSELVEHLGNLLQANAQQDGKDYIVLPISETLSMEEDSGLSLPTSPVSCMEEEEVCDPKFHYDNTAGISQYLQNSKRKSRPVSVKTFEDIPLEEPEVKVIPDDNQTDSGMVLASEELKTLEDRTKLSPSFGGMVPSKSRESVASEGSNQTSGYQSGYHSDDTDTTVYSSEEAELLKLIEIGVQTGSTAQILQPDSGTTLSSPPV
T1 sequence (P09619 33-1106): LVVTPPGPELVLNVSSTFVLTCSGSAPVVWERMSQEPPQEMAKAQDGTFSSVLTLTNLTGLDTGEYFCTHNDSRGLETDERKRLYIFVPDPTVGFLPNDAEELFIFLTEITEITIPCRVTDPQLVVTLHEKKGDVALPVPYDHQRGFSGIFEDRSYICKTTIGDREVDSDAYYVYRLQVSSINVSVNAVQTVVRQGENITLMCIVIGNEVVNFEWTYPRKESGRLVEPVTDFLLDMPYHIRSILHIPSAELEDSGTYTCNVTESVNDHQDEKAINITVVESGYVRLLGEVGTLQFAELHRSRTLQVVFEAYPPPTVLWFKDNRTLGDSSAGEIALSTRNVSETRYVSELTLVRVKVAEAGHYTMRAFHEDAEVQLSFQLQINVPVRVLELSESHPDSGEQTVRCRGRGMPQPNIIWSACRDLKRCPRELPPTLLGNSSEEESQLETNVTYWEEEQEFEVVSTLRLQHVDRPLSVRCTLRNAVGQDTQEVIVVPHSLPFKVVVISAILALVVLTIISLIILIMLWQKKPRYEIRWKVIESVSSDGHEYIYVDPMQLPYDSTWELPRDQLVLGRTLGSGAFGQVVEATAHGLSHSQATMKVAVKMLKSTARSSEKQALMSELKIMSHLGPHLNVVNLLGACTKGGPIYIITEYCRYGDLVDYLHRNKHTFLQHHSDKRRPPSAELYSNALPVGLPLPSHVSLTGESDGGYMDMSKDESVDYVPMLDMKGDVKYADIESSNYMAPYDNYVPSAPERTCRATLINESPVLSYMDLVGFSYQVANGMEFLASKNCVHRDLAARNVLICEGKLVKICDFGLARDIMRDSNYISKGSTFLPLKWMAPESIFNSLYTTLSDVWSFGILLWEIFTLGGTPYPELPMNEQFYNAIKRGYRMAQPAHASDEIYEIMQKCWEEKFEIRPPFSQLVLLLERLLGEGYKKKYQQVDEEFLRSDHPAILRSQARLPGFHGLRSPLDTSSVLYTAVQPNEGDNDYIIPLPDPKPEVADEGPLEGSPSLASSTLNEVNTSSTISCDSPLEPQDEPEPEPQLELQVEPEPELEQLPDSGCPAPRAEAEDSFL

Row | Compound | inhibition at 0.01 µM (PDGFRb) | inhibition at 0.01 µM (HER-4) | inhibition at 0.01 µM (HER-2) | inhibition at 0.01 µM (KDR (VEGFR2)) | inhibition at 0.01 µM (InsR) | inhibition at 0.01 µM (PDGFRa) | inhibition at 0.01 µM (EGFR) | inhibition at 0.01 µM (IGF1R) | melting point | inhibitory activity in relation to HER-4, in words (HER-4; 10 nM) | further results
1 | CCOC(=O)CC[C@H](NC(=O)c1ccc(CNc2nccc(-c3cccnc3)n2)cc1)C(=O)OCC [Compound 23, Diethyl (4-(((4-(pyridin-3-yl)pyrimidin-2-yl)amino)methyl)benzoyl)glutamate] | 0% | 12% | 0% | 0% | 49% | 0% | 0% | 1% | 130 to 132 °C |  | inhibition at 100 µM [1]: 11.5%; IC50 [2]: 66 µM; IC50 [3]: 49 µM
2 | N-(3-(4-methyl-1H-imidazol-1-yl)-5-(trifluoromethyl)phenyl)-4-(((4-(pyridin-2-yl)pyrimidin-2-yl)amino)methyl)benzamide [Compound 22] |  |  |  |  |  |  |  |  |  | comparable to imatinib | % Inhibition at 10 nM, PDGFRb (PDGFRb; 10 nM): 0%; % Inhibition at 10 nM, HER-4 (HER-4; 10 nM): 49%; % Inhibition at 10 nM, HER-2 (HER-2; 10 nM): 0%; % Inhibition at 10 nM, KDR (KDR (VEGFR2)): 28%; % Inhibition at 10 nM, InsR (InsR; 10 nM): 0%; % Inhibition at 10 nM, PDGFRa (PDGFRa; 10 nM): 0%; % Inhibition at 10 nM, EGFR (EGFR; 10 nM): 21%; % Inhibition at 10 nM, IGF1R (IGF1R; 10 nM): 0%
3 | CNC(=O)c1cc(Oc2ccc(NCc3ccc(C(=O)Nc4cccc(C(F)(F)F)c4)cc3)cc2)ccn1 [Compound 20, 4-{[(4-{[2-(Methylcarbamoyl)pyridin-4-yl]oxy}phenyl)amino]methyl}-N-[3-(trifluoromethyl)phenyl]benzamide] | 28% | 57% | 0% | 48% | 0% | 77% | 56% | 18% | 170 to 171 °C | comparable to imatinib | 
4 | CCOC(=O)CC[C@H](NC(=O)c1ccc(CNc2ccc(Oc3ccnc(C(=O)NC)c3)cc2)cc1)C(=O)OCC [Compound 21, Diethyl (4-(((4-((2-(methylcarbamoyl)pyridin-4-yl)oxy)phenyl)amino)methyl)benzoyl)glutamate] |  |  |  |  |  |  |  |  | 162 to 164 °C |  | 
5 | Cc1ccc(NC(=O)c2ccc(CN3CCN(C)CC3)cc2)cc1Nc1nccc(-c2cccnc2)n1 [Imatinib, reference compound] | 75% | 42% | 0% | 0% | 36% | 56% | 0% | 0% |  |  | inhibition at 100 µM [1]: 13.4%
6 | CNC(=O)c1cc(Oc2ccc(NC(=O)c3ccc(CNc4cc([N+](=O)[O-])ccc4C)cc3)cc2)ccn1 [Compound 17, 4-{[(2-Methyl-5-nitrophenyl)amino]methyl}-N-(4-{[2-(methylcarbamoyl)pyridin-4-yl]oxy}phenyl) benzoate] | 0% | 0% | 0% | 0% | 49% | 0% | 0% | 0% | 231 to 233 °C |  | selectivity for the gene insulin receptor, in words (InsR; 10 nM, panel of eight receptor tyrosine kinases): high selectivity
7 | Cc1ccc([N+](=O)[O-])cc1NCc1ccc(C(=O)Nc2cccc(C(F)(F)F)c2)cc1 [Compound 18, 4-{[(2-Methyl-5-nitrophenyl)amino]methyl}-N-[3-(trifluoromethyl)phenyl]benzamide] | 13% | 56% | 14% | 24% | 0% | 67% | 0% | 0% | 169 to 171 °C | comparable to imatinib | 
8 | CCOC(=O)CC[C@H](NC(=O)c1ccc(CNc2cc([N+](=O)[O-])ccc2C)cc1)C(=O)OCC [Compound 16, Diethyl (4-(((2-methyl-5-nitrophenyl)amino)methyl)benzoyl)glutamate] |  |  |  |  |  |  |  |  | 127 to 129 °C |  | 
9 | O=C(Nc1cccc(C(F)(F)F)c1)c1ccc(CNc2nccc(-c3cccnc3)n2)cc1 [Compound 24, 4-({[4-(Pyridin-3-yl)pyrimidin-2-yl]amino}methyl)-N-[3-(trifluoromethyl)phenyl]benzamide] | 0% | 44% | 0% | 2% | 0% | 0% | 24% | 0% | 138 to 141 °C | comparable to imatinib | 
10 | Cc1ccc([N+](=O)[O-])cc1NC(=O)c1ccc(CNc2nccc(-c3cccnc3)n2)cc1 [Compound 25, 4-({[4-(Pyridin-3-yl)pyrimidin-2-yl]amino}methyl)-N-{[(2-methyl-5-nitrophenyl) benzoate] |  |  |  |  |  |  |  |  | 175 to 176 °C |  | 
11 | COC(=O)c1ccc(N)c(NC(=O)c2ccc(CNc3cc([N+](=O)[O-])ccc3C)cc2)c1 [Compound 19, Methyl 4-amino-3-[(4-{[(2-methy-5-nitrophenyl)amino]methyl}benzoyl)amino]benzoate] |  |  |  |  |  |  |  |  | 208 to 210 °C |  | inhibition at 100 µM [1]: 10%; IC50 [2]: 64 µM; IC50 [3]: > 100 µM
